Test results: publication PMC7377239, “Cardiovascular Effects of Polychlorinated Biphenyls and Their Major Metabolites” (Environmental Health Perspectives, 2020)
Structures can show the parent of a compound that is named as a salt. Where two headings read alike, the source gives them in different places.

Legend:
[1] = tested on: iCell endothelial cells (human iPSC-derived ECs); assay: High-content imaging cytotoxicity in iCell endothelial cells, 24 h; assay type: cell-based; settings: Homo sapiens, Endothelial cell, endothelial cells (endo), 24 hr
In short: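 Readouts were vehicle-normalised and fitted to a four-parameter logistic model. POD was set at one SD beyond 0.5% DMSO control means, and 100 µM was assigned when no response was seen. Cells were monolayers of iCell endothelial cells imaged after 24 h compound exposure using nuclear, mitochondrial and calcein dyes.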

[2] = tested on: iPSC-CMs, iPSC-ECs and HUVECs phenotypes; assay: ToxPi 2.0 integration of POD values and physicochemical descriptors; set-up: species or system human; settings: ToxPi-scaled (0-1) score; for huvec.cyto.24hr / huvec.mito.24hr / huvec.mitoint.24hr / huvec.nma.24hr / huvec.tc.24hr / huvec.mtl.18hr / huvec.tlps.18hr / huvec.tta.18hr / huvec.ttl.18hr: HUVECs; for huvec.mtl.18hr / huvec.tlps.18hr / huvec.tta.18hr / huvec.ttl.18hr / endo.mtl.18hr / endo.tlps.18hr / endo.tta.18hr / endo.ttl.18hr: tube formation; for cm.amp.avg.90min / cm.amp.cv.90min / cm.bpm.90min / cm.cam.90min / cm.decay.rise.90min / cm.mii.90min / cm.mito.90min / cm.spacing.cv.90min / cm.tc.90min / cm.amp.avg.24hrs / cm.amp.cv.24hrs / cm.bpm.24hrs / cm.cam.24hrs / cm.decay.rise.24hrs / cm.mii.24hrs / cm.mito.24hrs / cm.spacing.cv.24hrs / cm.tc.24hrs: iPSC cardiomyocytes; for endo.cyto.24hr / endo.mito.24hr / endo.mitoint.24hr / endo.nma.24hr / endo.tc.24hr / endo.mtl.18hr / endo.tlps.18hr / endo.tta.18hr / endo.ttl.18hr: iPSC endothelial cells
From the text: Phenotypic responses were quantitatively assessed using concentration–response modeling as detailed elsewhere ([Sirenko et al. 2017]). Briefly, phenotypic readouts were normalized to vehicle controls and fit to a four-parameter logistic model in R studio software (version 3.1.1; R Development Core Team). Following EPA guidance on dose–response modeling, a cutoff of one standard deviation across means of vehicle control (i.e., 0.5% vol/vol DMSO in cell culture media) wells was applied to determine the point-of-departure (POD) values ([U.S. EPA 2012]). In the absence of a concentration–response, the highest tested concentration (i.e., 100μM ) was assigned as “no observable adverse effect level.” The concentration–response assessment R script, as well as templates for vehicle and concentration–response data, are available as a supplement to Sirenko et al. ([2017]). The ability of physicochemical properties to predict differences in PODs were evaluated by multiregression and mixed-effects modeling using R.
POD values were then integrated using ToxPi 2.0 ([Marvel et al. 2018]) software. In ToxPi, each slice is representative of cell type– and time-point–specific phenotypes. The area of each slice is proportional to the relative value (e.g., bioactivity or physicochemical descriptor value) of the chemical within the data set. ToxPi scores were used to rank PCBs and their metabolites according to their overall bioactivity and to determine variability in total observable biological responses and chemical characteristics for each major metabolite class and chlorination status (mono-, hexa-chlorinated). Additional visualizations such as dumbbell and principal components analysis plots were generated in R Studio (version 1.1.456; R version 3.5.1; R Development Core Team) using the ggplot2 package.

[3] = cyto, read-out: POD endo.cyto.24hr
[4] = mito, read-out: POD endo.mito.24hr
[5] = mitoint, read-out: POD endo.mitoint.24hr
[6] = nma, read-out: POD endo.nma.24hr

## O=S(=O)(O)Oc1cc(-c2ccccc2)ccc1Cl [3-PCB 3 sulfate]
[1]; [3]
  minimal effective concentration: 100 µM
[1]; [4]
  minimal effective concentration: 100 µM
[1]; [5]
  minimal effective concentration: 100 µM
[1]; [6]
  minimal effective concentration: 100 µM
[1]; tc, read-out: POD endo.tc.24hr
  minimal effective concentration: 100 µM
[2]
  huvec.cyto.24hr: 0
  huvec.mito.24hr: 0
  huvec.mitoint.24hr: 0
  huvec.nma.24hr: 0
  huvec.tc.24hr: 0
  huvec.mtl.18hr: 0.4834
  huvec.tlps.18hr: 0.07929
  huvec.tta.18hr: 0
  huvec.ttl.18hr: 0.09819
  cm.amp.avg.90min: 0.1033
  cm.amp.cv.90min: 0
  cm.bpm.90min: 0
  cm.cam.90min: 0
  cm.decay.rise.90min: 0
  cm.mii.90min: 0
  cm.mito.90min: 0
  cm.spacing.cv.90min: 0
  cm.tc.90min: 0
  cm.amp.avg.24hrs: 0
  cm.amp.cv.24hrs: 0
  cm.bpm.24hrs: 0
  cm.cam.24hrs: 0
  cm.decay.rise.24hrs: 0
  cm.mii.24hrs: 0.391
  cm.mito.24hrs: 0
  cm.spacing.cv.24hrs: 0
  cm.tc.24hrs: 0
  endo.cyto.24hr: 0
  endo.mito.24hr: 0
  endo.mitoint.24hr: 0
  endo.nma.24hr: 0
  endo.tc.24hr: 0
  endo.mtl.18hr: 0
  endo.tlps.18hr: 0.4317
  endo.tta.18hr: 0
  endo.ttl.18hr: 0

## Oc1ccc(-c2ccc(Cl)cc2)cc1 [4'-OH-PCB 3]
[1]; [3]
  minimal effective concentration: 41.1 µM
[1]; [4]
  minimal effective concentration: 41.1 µM
[1]; [5]
  minimal effective concentration: 100 µM
[1]; [6]
  minimal effective concentration: 100 µM
[1]; tc, read-out: POD endo.tc.24hr
  minimal effective concentration: 52 µM
[2]
  huvec.cyto.24hr: 0.275
  huvec.mito.24hr: 0.3852
  huvec.mitoint.24hr: 0.4333
  huvec.nma.24hr: 0.3408
  huvec.tc.24hr: 0.275
  huvec.mtl.18hr: 0.9876
  huvec.tlps.18hr: 1
  huvec.tta.18hr: 0.5814
  huvec.ttl.18hr: 0.4466
  cm.amp.avg.90min: 0.5917
  cm.amp.cv.90min: 0.3333
  cm.bpm.90min: 0.8225
  cm.cam.90min: 0.8629
  cm.decay.rise.90min: 0.5699
  cm.mii.90min: 0.6837
  cm.mito.90min: 0.8821
  cm.spacing.cv.90min: 0.08302
  cm.tc.90min: 0.896
  cm.amp.avg.24hrs: 1
  cm.amp.cv.24hrs: 0.8417
  cm.bpm.24hrs: 0.3262
  cm.cam.24hrs: 0.1519
  cm.decay.rise.24hrs: 0.2382
  cm.mii.24hrs: 0.4953
  cm.mito.24hrs: 0.213
  cm.spacing.cv.24hrs: 0.1936
  cm.tc.24hrs: 0.2201
  endo.cyto.24hr: 0.1551
  endo.mito.24hr: 0.1551
  endo.mitoint.24hr: 0
  endo.nma.24hr: 0
  endo.tc.24hr: 0.1152
  endo.mtl.18hr: 0.4612
  endo.tlps.18hr: 1
  endo.tta.18hr: 0.4055
  endo.ttl.18hr: 0.4146

## COc1ccc(-c2ccc(Cl)cc2)cc1 [4'-OMe-PCB 3, 4′-methoxy-4-chlorobiphenyl]
[1]; [3]
  minimal effective concentration: 100 µM
[1]; [4]
  minimal effective concentration: 100 µM
[1]; [5]
  minimal effective concentration: 20.5 µM
[1]; [6]
  minimal effective concentration: 100 µM
[1]; tc, read-out: POD endo.tc.24hr
  minimal effective concentration: 100 µM
[2]
  huvec.cyto.24hr: 0.2539
  huvec.mito.24hr: 0.3347
  huvec.mitoint.24hr: 0.2259
  huvec.nma.24hr: 0.5435
  huvec.tc.24hr: 0.2539
  huvec.mtl.18hr: 0.5905
  huvec.tlps.18hr: 0.1332
  huvec.tta.18hr: 0.4823
  huvec.ttl.18hr: 0.3839
  cm.amp.avg.90min: 0.148
  cm.amp.cv.90min: 0.2333
  cm.bpm.90min: 0.4231
  cm.cam.90min: 0
  cm.decay.rise.90min: 0
  cm.mii.90min: 0
  cm.mito.90min: 0
  cm.spacing.cv.90min: 0.06946
  cm.tc.90min: 0
  cm.amp.avg.24hrs: 0.1468
  cm.amp.cv.24hrs: 0
  cm.bpm.24hrs: 0.4274
  cm.cam.24hrs: 0.02517
  cm.decay.rise.24hrs: 0.569
  cm.mii.24hrs: 0
  cm.mito.24hrs: 0
  cm.spacing.cv.24hrs: 0.5026
  cm.tc.24hrs: 0
  endo.cyto.24hr: 0
  endo.mito.24hr: 0
  endo.mitoint.24hr: 0.218
  endo.nma.24hr: 0
  endo.tc.24hr: 0
  endo.mtl.18hr: 0.3533
  endo.tlps.18hr: 0.3362
  endo.tta.18hr: 0.2327
  endo.ttl.18hr: 0.2433

## O=S(=O)(O)Oc1ccc(-c2ccc(Cl)cc2)cc1 [4'-PCB 3 sulfate]
[1]; [3]
  minimal effective concentration: 100 µM
[1]; [4]
  minimal effective concentration: 100 µM
[1]; [5]
  minimal effective concentration: 100 µM
[1]; [6]
  minimal effective concentration: 100 µM
[1]; tc, read-out: POD endo.tc.24hr
  minimal effective concentration: 100 µM
[2]
  huvec.cyto.24hr: 0
  huvec.mito.24hr: 0
  huvec.mitoint.24hr: 0
  huvec.nma.24hr: 0
  huvec.tc.24hr: 0
  huvec.mtl.18hr: 0.4903
  huvec.tlps.18hr: 0
  huvec.tta.18hr: 0.272
  huvec.ttl.18hr: 0
  cm.amp.avg.90min: 0.6628
  cm.amp.cv.90min: 0.2569
  cm.bpm.90min: 0.1909
  cm.cam.90min: 0
  cm.decay.rise.90min: 0.4625
  cm.mii.90min: 0
  cm.mito.90min: 0
  cm.spacing.cv.90min: 0.1039
  cm.tc.90min: 0
  cm.amp.avg.24hrs: 0
  cm.amp.cv.24hrs: 0
  cm.bpm.24hrs: 0
  cm.cam.24hrs: 0
  cm.decay.rise.24hrs: 0
  cm.mii.24hrs: 0.1652
  cm.mito.24hrs: 0
  cm.spacing.cv.24hrs: 0
  cm.tc.24hrs: 0
  endo.cyto.24hr: 0
  endo.mito.24hr: 0
  endo.mitoint.24hr: 0
  endo.nma.24hr: 0
  endo.tc.24hr: 0
  endo.mtl.18hr: 0.3281
  endo.tlps.18hr: 0.3444
  endo.tta.18hr: 0.1625
  endo.ttl.18hr: 0.2037
